According to patent US9371265B2, “Compositions and methods related to inhibitors of JAK kinase” (EP PHARMA, INC., priority 2012, dated 2016):

Experiments:
[1] = Stability analysis in solvents using NMR and HPLC; type: physicochemical
Experimental: FIG. 3. EP009 is structurally stable under varying solvent and temperature conditions. EP009 was dissolved in DMSO, DMSO:H20 (3:2 ratio), or methanol, and incubated at 25° C. or 37° C. for 24 hours.
FIG. 11 illustrates the dose-dependent effect of (FIG. 11A) freshly prepared EP-009(P) and (FIG. 11B) EP-009(P) stored in aqueous conditions for 48 hr at room temperature on IL-2/JAK3-dependent Kit225 cell viability. FIG. 12 illustrates LC-MS/MS detection of EP-009 (5 ng/ml) in mouse plasma at a retention time of 1.91 min.

ZAP70 = ZAP70 (Homo sapiens, UniProt P43403); test: Kinase panel: ZAP70; type: biochemical; settings: 10 μM EP009
Experimental: Achieving JAK3 selectivity remains a significant challenge in the development of new small molecules for the treatment of cancer and immune-derived diseases. As such, the inventors employed cell-based screening assays of small-molecule libraries based upon the chemical scaffold of the established JAK3 inhibitor NC1153 (Stepkowski et al., J Immunol. (2005), 175(7):4236-4246) EP009 (FIG. 2A) was selected as a lead compound due to improved intrinsic stability (>95% purity in various solvents at 37° C. for 24 hours; FIG. 3) and high-degree of JAK3 selectivity. To test JAK3 versus JAK2 specificity of EP009, the IL-2/JAK3-dependent Kit225, and IL-3/JAK2-dependent BaF/3 cell lines were used. Kit225 and BaF/3 cells growing in the presence of IL-2 or IL-3, respectively, were treated with ascending concentrations of EP009 for 12 hours and cellular JAK3 and JAK2 tyrosine phosphorylation levels detected by Western blot analysis (FIGS. 2B and 2C). Following densitometric analysis, EP009 was determined to dose-dependently reduce IL-2-mediated JAK3 tyrosine phosphorylation with a cellular 50% inhibitory concentration (IC50) between 10 and 20 μM (FIG. 2B). […] To globally evaluate specificity, the inhibitory activity of EP009 was measured against a panel of protein kinases distributed throughout the kinome using the scanEDGE profiling service (KINOMEscan). […]

[2] = LD50 / acute safety, intravenous tail vein injection; type: in vivo; settings: mice, IV bolus
Experimental: Mice were dosed using EP009 (-P) by intravenous tail vein injection. 25 mice were divided into groups of 5 and given doses of 2.0 mg (group B), 4.0 mg (group C), 6.0 mg (group D), and 8.0 mg (group E) of EP009, along with a placebo control (group A), in a volume of […]. This corresponded to doses of 100, 200, 300, 400 mg/kg, and 0 mg/kg (control). Dosing began at 3:15 p.m., and began with the highest dose group, followed by 6, 4, 2, and the control group. Dosing took around 15 minutes.

immunopurified JAK3 = molecular target: T1, immunopurified JAK3 (Homo sapiens, UniProt P52333); test: In vitro JAK3 autokinase assay; type: biochemical; settings: 1 μM ATP, densitometry analysis
T1 construct: immunopurified JAK3 from YT cells resuspended in kinase buffer; endogenous in cells; host or cells: YT cells (immunoprecipitate)

JAK2 = molecular target: T2, JAK2 (Mus musculus, UniProt Q62120); test: IL-3-induced JAK2 tyrosine phosphorylation in BaF/3 cells (IP/Western blot); type: cell-based, murine; settings: 12 hours, concentrations up to 50 μM
T2 construct: cellular JAK3 and JAK2 tyrosine phosphorylation levels detected by Western blot analysis; endogenous in cells; host or cells: Ba/F3 (BaF/3)
Experimental: FIGS. 2A-2F. Selective inhibition of JAK3 by EP009 results in loss of JAK3-dependent tumor cell line viability with no detectable off-target effects in key cell types. (A) Chemical structure of EP009 (M.W. 224.34). (B) Kit225 or (C) BaF/3 cells cultured in the presence of IL-2 or IL-3, respectively, were treated with vehicle (PBS; lane a) or increasing amounts of EP009 (0-50 μM; lanes b-h) for 12 hours. Cells were then lysed, clarified, and immunoprecipitated (IP) with anti-JAK3 (α-JAK3) or anti-JAK2 (α-JAK2), and subjected to Western blot (WB) analysis with anti-phosphotyrosine (α-pY). Blots were stripped and reprobed with corresponding antibody to verify equivalent protein loading. […] (E) Kit225 or BaF/3 cells were cultured with increasing amounts of EP009 (0-10 μM) for 72 hours and cell viability measured with the MTS tetrazolium salt assay. Values represent mean absorbance (OD490-OD650 nm) normalized to vehicle (PBS) treated control cells, while error bars represent the standard deviation (n=3). (F) HEK293, HEPG2, or naïve primary human PBMCs were cultured with increasing amounts of EP009 (0-10 μM) for 72 hours and cell viability measured with the MTS tetrazolium salt assay. Values represent mean absorbance (OD490-OD650 nm) normalized to vehicle (PBS) treated control cells, while error bars represent the standard deviation (n=3). […]

T2 sequence (Q62120 whole entry): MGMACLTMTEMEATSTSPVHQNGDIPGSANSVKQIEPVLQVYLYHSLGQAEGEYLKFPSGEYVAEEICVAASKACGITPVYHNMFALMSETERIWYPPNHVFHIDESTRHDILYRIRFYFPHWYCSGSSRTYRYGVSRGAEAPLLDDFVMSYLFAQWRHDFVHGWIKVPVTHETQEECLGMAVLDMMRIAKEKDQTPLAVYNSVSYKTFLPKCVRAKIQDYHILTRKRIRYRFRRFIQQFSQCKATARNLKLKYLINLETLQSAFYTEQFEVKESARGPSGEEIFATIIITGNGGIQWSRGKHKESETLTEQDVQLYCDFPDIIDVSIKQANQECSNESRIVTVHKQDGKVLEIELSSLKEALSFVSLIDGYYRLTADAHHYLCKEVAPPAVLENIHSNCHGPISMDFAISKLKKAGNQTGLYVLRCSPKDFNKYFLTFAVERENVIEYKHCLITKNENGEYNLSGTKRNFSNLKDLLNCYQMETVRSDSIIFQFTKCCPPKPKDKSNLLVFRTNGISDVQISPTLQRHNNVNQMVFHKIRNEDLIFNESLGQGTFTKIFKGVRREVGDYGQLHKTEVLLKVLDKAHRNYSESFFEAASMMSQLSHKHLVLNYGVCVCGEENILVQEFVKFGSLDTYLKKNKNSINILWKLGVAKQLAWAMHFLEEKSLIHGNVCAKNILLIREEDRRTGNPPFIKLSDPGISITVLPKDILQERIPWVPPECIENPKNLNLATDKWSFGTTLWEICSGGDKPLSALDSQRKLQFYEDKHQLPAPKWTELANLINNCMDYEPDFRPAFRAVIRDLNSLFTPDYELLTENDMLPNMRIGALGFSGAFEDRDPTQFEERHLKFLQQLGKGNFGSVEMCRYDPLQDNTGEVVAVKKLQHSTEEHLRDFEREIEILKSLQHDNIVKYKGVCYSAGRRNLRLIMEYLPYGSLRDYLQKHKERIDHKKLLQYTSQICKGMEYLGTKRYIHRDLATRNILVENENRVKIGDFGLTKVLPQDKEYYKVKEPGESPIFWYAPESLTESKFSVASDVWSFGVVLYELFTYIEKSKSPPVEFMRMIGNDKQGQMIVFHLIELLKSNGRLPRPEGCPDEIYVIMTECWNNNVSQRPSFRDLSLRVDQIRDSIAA
Sequence of ZAP70 (P43403 whole entry): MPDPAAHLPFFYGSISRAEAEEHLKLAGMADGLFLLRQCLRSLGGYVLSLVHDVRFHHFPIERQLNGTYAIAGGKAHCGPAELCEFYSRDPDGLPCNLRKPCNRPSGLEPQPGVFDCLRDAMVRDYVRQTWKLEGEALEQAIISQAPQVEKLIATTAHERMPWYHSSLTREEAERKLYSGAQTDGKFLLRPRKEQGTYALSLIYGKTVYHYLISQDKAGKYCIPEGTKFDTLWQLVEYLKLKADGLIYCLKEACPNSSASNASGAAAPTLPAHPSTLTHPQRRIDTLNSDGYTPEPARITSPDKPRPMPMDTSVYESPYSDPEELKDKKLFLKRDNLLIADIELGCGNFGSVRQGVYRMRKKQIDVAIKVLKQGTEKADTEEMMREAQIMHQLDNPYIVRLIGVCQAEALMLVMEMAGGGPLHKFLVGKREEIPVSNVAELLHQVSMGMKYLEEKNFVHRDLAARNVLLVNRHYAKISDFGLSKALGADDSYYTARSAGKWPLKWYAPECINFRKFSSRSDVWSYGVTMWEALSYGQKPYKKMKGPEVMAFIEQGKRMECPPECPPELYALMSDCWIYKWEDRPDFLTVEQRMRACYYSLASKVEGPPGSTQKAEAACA
T1 sequence (P52333 whole entry): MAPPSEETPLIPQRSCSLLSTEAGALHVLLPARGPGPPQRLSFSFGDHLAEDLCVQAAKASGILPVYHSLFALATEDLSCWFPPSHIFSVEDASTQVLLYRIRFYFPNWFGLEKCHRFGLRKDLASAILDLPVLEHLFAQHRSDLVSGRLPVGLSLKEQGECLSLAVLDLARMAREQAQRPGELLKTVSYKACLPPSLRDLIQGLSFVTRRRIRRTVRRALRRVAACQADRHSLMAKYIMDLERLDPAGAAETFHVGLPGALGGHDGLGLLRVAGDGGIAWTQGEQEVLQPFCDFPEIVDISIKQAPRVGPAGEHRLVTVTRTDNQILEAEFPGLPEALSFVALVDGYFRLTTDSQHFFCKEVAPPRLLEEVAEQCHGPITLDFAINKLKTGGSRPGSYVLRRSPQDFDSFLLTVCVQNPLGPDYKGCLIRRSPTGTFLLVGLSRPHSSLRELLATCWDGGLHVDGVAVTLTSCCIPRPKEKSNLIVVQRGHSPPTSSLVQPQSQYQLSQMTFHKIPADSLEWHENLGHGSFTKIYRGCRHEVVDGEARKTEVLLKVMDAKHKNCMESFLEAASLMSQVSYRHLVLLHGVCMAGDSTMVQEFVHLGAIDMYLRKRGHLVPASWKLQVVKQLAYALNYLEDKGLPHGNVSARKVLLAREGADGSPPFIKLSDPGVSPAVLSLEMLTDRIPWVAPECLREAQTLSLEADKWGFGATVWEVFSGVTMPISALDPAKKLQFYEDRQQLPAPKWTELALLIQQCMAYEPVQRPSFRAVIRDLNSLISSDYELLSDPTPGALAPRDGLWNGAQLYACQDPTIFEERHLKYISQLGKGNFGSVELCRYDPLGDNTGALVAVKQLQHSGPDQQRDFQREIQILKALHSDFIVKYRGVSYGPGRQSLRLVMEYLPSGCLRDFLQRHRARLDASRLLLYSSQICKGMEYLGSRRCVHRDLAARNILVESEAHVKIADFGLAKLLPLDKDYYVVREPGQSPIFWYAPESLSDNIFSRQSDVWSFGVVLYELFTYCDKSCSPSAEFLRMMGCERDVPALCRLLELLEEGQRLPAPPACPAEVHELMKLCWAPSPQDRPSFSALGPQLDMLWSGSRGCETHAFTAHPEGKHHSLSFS

**Q.** With `C=C1CCCCCCCCCC(CO)C1=O` (stereo not drawn) [EP009, 2-(Hydroxymethyl)-12-methylenecyclododecanone] as the compound, how does the “stability under various solubility conditions” value ([1]; 24 hr at 25° C. and 37° C.) read?
**A.** stabile

**Q.** What about the “intrinsic stability (purity)” value ([1]; various solvents at 37° C. for 24 hours) of the same compound?
**A.** > 95%

**Q.** And the “Kinase Activity (% of Control)” value (ZAP70)?
**A.** 99 % of Control

**Q.** And the “dose limiting safety in vivo” value [2]?
**A.** 200 to 300 mg/kg

**Q.** What about the IC50 (immunopurified JAK3) of the same compound?
**A.** 1000 to 2500 nM

**Q.** What about the “effect on IL-3-induced JAK2 tyrosine phosphorylation” value (JAK2) of the same compound?
**A.** no detectable effect
